In test [1] the target is T1, DPP IV (Homo sapiens, UniProt P27487).
T1 construct: using human plasma as a source of DPP IV; from tissue; host or cells: human plasma
The test can be described thus: DPP IV assay with human plasma as source of DPP IV. Type of test: biochemical. Particulars: 1 hr incubation, substrate H-gly-pro AMC, vs vehicle control. The method, then:
DPP IV assay is carried by using human plasma as a source of DPP IV. The compounds were incubated at a concentration of 1 and 10 μM in an assay buffer containing the DPP IV enzyme for 1 hr, and then the substrate H-gly-pro AMC was added and further incubated for 20 minutes. Subsequently the reaction was stopped on addition of 25% glacial acetic acid. The plates were read in a spectrofluorimeter to get RFU on setting the excitation wavelength of 360 nm and emission wavelength of 460 nm. The percentage inhibition is calculated as compared to the vehicle control.

The test system of test [2] is Streptozotocin induced diabetic mice. Put plainly: Antidiabetic activity in streptozotocin induced diabetic mice. Conditions: plasma, 50 mg/kg oral for 7 days, female mice, vs control group. Type of test: in vivo, Swiss albino mice. The method, then:
Antidiabetic Activity in Streptozotocin Induced Diabetic Mice
Female Swiss albino mice, at the age of 10 weeks were used in the study. Diabetes was induced in the animals by injecting streptozotocin by i.p. route at a dose of 200-mg/kg-body weight. 48 hours after streptozotocin administration, the animals were kept fasting for 6 hours. Subsequently blood was collected, plasma separated and the glucose was estimated. Animals showing greater than 200 mg/dl glucose levels were considered as diabetic and these animals were randomly distributed into various groups. The compounds 2 listed in the table 3 were administered at a dose of 50-mg/kg body weight by oral route for 7 days. Later the animals were fasted for 6 hours, the blood was collected and the plasma was separated. Biochemical estimations like glucose, cholesterol and triglycerides were carried out using the plasma. The effect of the compounds mentioned in the table was expressed in terms of percentage reduction in biochemical values as compared to the control group.

T1 sequence (P27487 39-766 limits assumed): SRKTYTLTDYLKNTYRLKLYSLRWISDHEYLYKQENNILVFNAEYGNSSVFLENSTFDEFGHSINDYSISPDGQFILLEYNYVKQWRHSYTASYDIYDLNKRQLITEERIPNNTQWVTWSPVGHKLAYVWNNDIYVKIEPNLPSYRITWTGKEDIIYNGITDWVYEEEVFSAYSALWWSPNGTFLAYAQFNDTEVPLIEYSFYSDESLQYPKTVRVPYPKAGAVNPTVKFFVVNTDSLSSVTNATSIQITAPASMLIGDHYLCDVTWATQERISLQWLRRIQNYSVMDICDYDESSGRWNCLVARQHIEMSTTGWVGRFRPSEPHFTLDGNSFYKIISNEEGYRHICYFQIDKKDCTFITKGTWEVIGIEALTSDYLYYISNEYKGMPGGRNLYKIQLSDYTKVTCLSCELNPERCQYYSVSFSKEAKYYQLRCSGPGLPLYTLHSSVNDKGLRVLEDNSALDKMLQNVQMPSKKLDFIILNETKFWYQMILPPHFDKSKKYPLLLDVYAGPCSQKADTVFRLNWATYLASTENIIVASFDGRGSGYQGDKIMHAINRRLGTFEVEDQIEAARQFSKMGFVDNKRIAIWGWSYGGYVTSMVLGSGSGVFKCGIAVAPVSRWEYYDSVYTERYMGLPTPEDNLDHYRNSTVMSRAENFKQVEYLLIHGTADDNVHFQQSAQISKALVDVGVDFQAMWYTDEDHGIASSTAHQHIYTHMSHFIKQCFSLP

Broadly, the inhibition is the change of the read-out against control, counted positive when it falls. In test [1], `O=C1COCC(Cc2ccc(Oc3ccc(/C=C4/C(=O)Nc5ccccc54)cc3F)cc2)N1` (stereo not shown) [Example 15] showed an inhibition at 1 µM of 12.1% and an inhibition at 10 µM of 9.1%. `O=C1COCC(Cc2ccc(Oc3ccc(/C=C4\SC(=S)NC4=O)cc3)cc2)N1` (stereo not shown) [Example 2, 5-(4-{4-[(4-oxo-2-thioxo-1,3-thiazolidin-5-ylidene)methyl]phenoxy}benzyl)morpholin-3-one]: in test [2], the “% Reduction Glucose” value is recorded as 42.6% and the “% Reduction Triglyceride” value came to 44.4%.

In test [1], `O=C1COCC(Cc2ccc(Oc3ccc(/C=C4/C(=O)Nc5ccccc54)cc3Cl)cc2)N1` (stereo not shown) [Example 9] came in with an inhibition at 1 µM of 6.3% and an inhibition at 10 µM of 7.5%. The like results for `CN1C(=O)COCC1Cc1ccc(Oc2ccc(/C=C3\SC(=O)NC3=O)cc2)cc1` (stereo not shown) [Example 19, 5-(4-{4-[(4-methyl-5-oxomorpholin-3-yl)methyl]phenoxy}benzylidene)-1,3-thiazolidine-2,4-dione] were, in that order, 8.9% and 15.2%. For `O=C1COCC(Cc2ccc(Oc3ccc(/C=C4\SC(=S)NC4=O)cc3C(F)(F)F)cc2)N1` (stereo not shown) [Example 18, 5-(4-{4-[(4-oxo-2-thioxo-1,3-thiazolidin-5-ylidene)methyl]-2-(trifluoromethyl)phenoxy}benzyl)morpholin-3-one] the same measures were 7.3% and 11.8%. `O=C1COCC(Cc2ccc(Oc3ccc(/C=C4\SC(=O)NC4=O)cc3)cc2)N1` (stereo not shown) [Example 1, 5-[4-(4-{[5-oxomorpholin-3-yl]methyl}phenoxy)benzylidene]-1,3-thiazolidine-2,4-dione]: in test [2], the “% Reduction Glucose” value came to 41.6%. Consider `O=C1COCC(Cc2ccc(Oc3ccc(/C=C4\SC(=O)NC4=O)cc3Cl)cc2)N1` (stereo not shown) [Example 7, 5-(3-chloro-4-{4-[(5-oxomorpholin-3-yl)methyl]phenoxy}benzylidene)-1,3-thiazolidine-2,4-dione], for which, in test [2], the “% Reduction Glucose” value was 44.5% and the “% Reduction Triglyceride” value stood at 60.9%.

The values are drawn from patent publication US20080267888A1, “Heterocyclic Derivatives” (priority 2005, published 2008).
